Results reported in US20150218654A1, “METHODS FOR PREDICTING MULTIPLE MYELOMA TREATMENT RESPONSE” (INSERM (INSTITUT NATIONAL DE LA SANTÉ ET DE LA RE- CHERCHE …, priority 2012, published 2015).
Read-outs that look alike come from different tables or passages of the source.

Key:
[1] = test system: human myeloma cell lines (HMCLs); assay: Growth assay for myeloma cells (Cell Titer Glo, 4 days, graded DNMTi concentrations); assay type: cell-based; details: for IC50: Homo sapiens, 5-azacitidine
Experimental: HMCLs were cultured for 4 days in 96-well flat-bottom microtiter plates in RPMI 1640 medium, 10% FCS, 2 ng/ml IL-6 culture medium (control), with graded decitabine concentrations. Data are mean values plus or minus standard deviation (SD) of 5 experiments determined on sextuplet culture wells.
HMCLs were cultured for 4 days in 96-well flat-bottom microtiter plates in RPMI 1640 medium, 10% FCS, 2 ng/ml IL-6 culture medium (control), and graded 5-azacitidine concentrations. Data are mean values plus or minus standard deviation (SD) of 5 experiments determined on sextuplet culture wells.
HMCLs were cultured for 4 days in 96-well flat-bottom microtiter plates in RPMI 1640 medium, 10% FCS, 2 ng/ml IL-6 culture medium (control), with graded decitabine concentrations. Cell growth was evaluated by quantifying intracellular ATP amount with a Cell Titer Glo Luminescent Assay (Promega, Madison, Wis.) with a Centro LB 960 luminometer (Berthold Technologies, Bad Wildbad, Germany).
The inventors sought to determine whether DM Score could predict for the sensitivity of 10 HMCLs to DNMT inhibitor. Starting from a large cohort of 40 HMCLs (22), the 10 HMCLs with the highest or lowest DM Score were selected to assay decitabine sensitivity.
HMCLs were cultured with graded 5-azacitidine (Sigma, St. Louis, Mo.) concentrations. HMCLs cell growth was quantified with a Cell Titer Glo Luminescent Assay (Promega, Madison, Wis.) and half inhibitory concentration (IC50) was determined using GraphPad Prism (http://www.graphpad.com/scientific-software/prism/).

[2] = test system: primary myeloma cells of patients (CD138+ viable plasma cells); assay: Mononuclear cell culture of patients' tumor samples, count of viable CD138+ myeloma cells by flow cytometry; assay type: cell-based, human; details: primary MMCs of high DM Score patients (N=7) versus low DM Score patients (N=7), P<0.05
Experimental: Mononuclear cells from tumor samples of 12 patients with MM were cultured for 4 days in the presence of IL-6 (2 ng/ml) with or without graded decitabine concentrations. At day 4 of culture, the cell count and the viability were determined and the percentage of CD138^+ viable plasma cells was determined by flow cytometry. Black color represents patients with high DM Score (N=6) and white represents patients with low DM Score values (N=6).
Mononuclear cells from tumor samples of 14 patients with MM were cultured for 4 days in the presence of IL-6 (2 ng/ml) with or without graded 5-azacitidine concentrations. At day 4 of culture, the count of viable CD138′ MMCs was determined using flow cytometry. The black columns represent the mean±SD of primary myeloma cell counts (expressed as the percentage of the count without adding 5-azcytidine) of the 7 patients with a low DM Score and the white columns that of the 7 patients with a high DM Score.
Mononuclear cells from tumor samples of 12 patients with MM (agreement of the Center for Biological Resources of Montpellier University Hospital (N° DC-2008-417)) were cultured for 4 days at 2×10^5 cells/ml in RPMI 1640 medium, 10% FCS, 2 ng/ml IL-6, with or without graded concentrations of decitabine. In each culture group, viability and cell counts were assayed and MMCs were stained with an anti-CD138-PE mAb (Immunotech, Marseille, France) as previously described (32).
Primary myeloma cells of 14 patients were cultured with or without graded concentrations of 5-azacitidine and MMC cytotoxicity evaluated using anti-CD138-PE mAb (Immunotech, Marseille, France) as described (Jourdan, et al 1998; Mahtouk, et al 2004; Moreaux, et al 2012).

IC50 ([1]; 6 HMCLs with high DM Score, read-out: IC50 range): 1.12 to 8.25 µM
IC50 ([1]; 6 HMCLs with high DM Score, read-out: median IC50): 2.43 µM
IC50 ([1]; 6 HMCLs with low DM Score, read-out: IC50 range): 5.73 to 27.9 µM
IC50 ([1]; 6 HMCLs with low DM Score, read-out: median IC50): 7.45 µM
SMILES: Nc1ncn([C@@H]2O[C@H](CO)[C@@H](O)[C@H]2O)c(=O)n1 [5-azacitidine, 5-Azacytidine]
fold higher 5-azacitidine sensitivity ([1]; HMCLs with high DM Score versus low DM Score, P=0.01): 3 fold
fold higher 5-azacytidine sensitivity [2]: 1.6 fold
